Source: patent US6020342A, “Fused imidazo[1,2-A]pyridines” (Shinnippon Pharmaceutical, Inc., priority 1995, dated 2000)

How the values were obtained:
H^+ /K^+ -ATPase = molecular target: T1, H^+ /K^+ -ATPase (Sus scrofa, UniProt P19156); assay: Inhibitory Action on H^+ /K^+ -ATPase Activity; type: biochemical; settings: microsome fraction from porcine gastric mucosa, pH7.4, 37° C., 30 min preincubation, 15 min reaction
T1 construct: a microsome fraction prepared from porcine gastric mucosa was used as a standard enzyme; from tissue; host or cells: porcine gastric mucosa, microsome fraction
Procedure: Inhibitory Action on H^+ /K^+ -ATPase Activity
According to the method of Hongo et al. [The Japanese Journal of Pharmacology, 52, p295, (1990)], a microsome fraction prepared from porcine gastric mucosa was used as a standard enzyme. The standard enzyme (10-20lig protein) and the test compound (0.1-100 μM) dissolved in dimethylsulfoxide was incubated at 37° C. for 30 minutes in the 50 mM Tris-acetate buffer (pH7.4, containing 2 mM magnesium chloride, 5 mM potassium chloride). The enzyme reaction was started by adding adenosinetriphosphate (ATP). Tris at the final concentration of 2 mM, and the reaction was kept at 37° C. for 15 minutes. The reaction was stopped by adding chilled 10% trichloroacetic acid. Inorganic phosphate released during the reaction was calorimetrically determined according to the method of Fiske-Subbarow [The Journal of Biological Chemistry, 66, p375, (1925)]. H^+ /K^+ -ATPase activity was determined by the difference of the enzyme activities under the conditions with or without potassium chloride. The inhibitory activities of test compounds were determined as the 50% inhibitory concentration (IC50 value) from reaction-concentration curve, and the results are shown in Table 3.

gastric acid secretion [1] = assay: Inhibition of Gastric Acid Secretion Observed Under Acute Fistula Method; type: in vivo, male Wistar rats; settings: Rattus norvegicus; 30 mg/kg intraduodenally, rats, histamine 10 mg/kg s.c., cumulative 2 h
Procedure: Inhibition of Gastric Acid Secretion Observed Under Acute Fistula Method
Male Wistar rats (6-8 weeks) fasted for 24 hours (water ad libitum) were used. The rats were anesthetized by intraperitoneal administration of 1.25 g/kg of urethane. The abdomen was incised, and acute gastric fistula was connected to the stomach. Two ml of saline was injected into the stomach, and recovered every 20 minutes. The gastric acid secretion was determined by titrating of gastric juice by 150 mM sodium hydroxide up to pH7.0 using an autotitrator. Test compounds (30 mg/kg) suspended in a 0.5% aqueous sodium carboxymethylcellulose (CMC-Na) solution were administered intraduodenally. After 1 hour, gastric acid secretion was stimulated by subcutaneous administration of histamine dihydrochloride dissolved in saline (10 mg/kg). Inhibition (%) of gastric acid secretion was determined by calculating cumulative amount of the acid secretion during two hours after histamine stimulation and then comparing the cumulative amount with that in the control group. In the control group, only 0.5% aqueous CMC-Na solution was administered intraduodenally.

gastric acid secretion [2] = assay: Inhibition of Gastric Acid Secretion Observed Under Stomach Perfusion Method; type: in vivo, male Sprague Dawrey rats; settings: Rattus norvegicus, ip, 1 h; rats, histamine i.v. 8 mg/kg/hr, inhibition one hour after administration (1-10 mg/kg, "intrapenetorially"); read-out: ID50 (dose showing 50% inhibition of acid secretion)
Procedure: Inhibition of Gastric Acid Secretion Observed Under Stomach Perfusion Method
Male Sprague Dawrey rats (6-7weeks) fasted for 24 hours were used (water ad libitum). The rats were anesthetized by intraperitoneal administration of 1.25 g/kg of urethane. The abdomen was incised, and gastral cavity was perfused with saline during experiment. The perfusate was titrated by 10 mM sodium hydroxide up to pH5.5 using an autotitrator in accordance with Stat-method. Gastric acid secretion was stimulated by intravenous administration of histamine dihydrochloride (8 mg/kg/hr). Two hours after histamine stimulation, a test compound 1-10 mg/kg) was administered intrapenetorially. The test compound was mixed with small amount of polysorbate-80, and the mixture was suspended in saline. The test compound was evaluated using ID50 (dose showing 50% inhibition of acid secretion) which was calculated based on inhibition of the acid secretion observed one hour after administration of the compound.

[3] = test system: ethanol-induced gastric lesion; assay: Inhibition of Ethanol-induced Gastric Lesion (Protection of gastric mucosa); type: in vivo, male Wister rats; settings: Rattus norvegicus, po, 1 h; 30 mg/kg orally, rats, ethanol 0.5 ml/100 g
Procedure: Inhibition of Ethanol-induced Gastric Lesion (Protection of gastric mucosa)
Male Wister rats (6-7weeks, 5 rats per group) fasted for 24 hours were used (water ad libitum). Test compound (30 mg/kg) suspended in 0.5% aqueous CMC-Na solution was orally administered. In the control group, only 0.5% aqueous CMC-Na solution was administered. Thirty minutes after administration, 0.5 ml/100 g body weight of ethanol was orally administered to cause gastric lesion. After one hour, the rat was killed by excessive amount of ether, and the stomach was removed and fixed with 2% formalin. After fixation, the stomach was dissected along the large curvature. The size of each of mucosal lesions was measured under dissecting microscope, and the total size of the lesions per rat was determined and used as ulcer index (mm). Inhibition of gastric lesion was determined by comparing the ulcer index in the control group and test group.

[4] = parameters: species or system male ICR mice; settings: mouse, in vivo, po, 10080 min
Procedure: Male ICR mice (6 weeks, 3 mice per group) fasted for 16 hours were used ad libitum). A test compound suspended in 5% aqueous gum arabic solution was orally administered. After administration, mortality of the animals observed during 7 days and approximate lethal dose was determined.

T1 sequence (P19156 2-1034 limits assumed): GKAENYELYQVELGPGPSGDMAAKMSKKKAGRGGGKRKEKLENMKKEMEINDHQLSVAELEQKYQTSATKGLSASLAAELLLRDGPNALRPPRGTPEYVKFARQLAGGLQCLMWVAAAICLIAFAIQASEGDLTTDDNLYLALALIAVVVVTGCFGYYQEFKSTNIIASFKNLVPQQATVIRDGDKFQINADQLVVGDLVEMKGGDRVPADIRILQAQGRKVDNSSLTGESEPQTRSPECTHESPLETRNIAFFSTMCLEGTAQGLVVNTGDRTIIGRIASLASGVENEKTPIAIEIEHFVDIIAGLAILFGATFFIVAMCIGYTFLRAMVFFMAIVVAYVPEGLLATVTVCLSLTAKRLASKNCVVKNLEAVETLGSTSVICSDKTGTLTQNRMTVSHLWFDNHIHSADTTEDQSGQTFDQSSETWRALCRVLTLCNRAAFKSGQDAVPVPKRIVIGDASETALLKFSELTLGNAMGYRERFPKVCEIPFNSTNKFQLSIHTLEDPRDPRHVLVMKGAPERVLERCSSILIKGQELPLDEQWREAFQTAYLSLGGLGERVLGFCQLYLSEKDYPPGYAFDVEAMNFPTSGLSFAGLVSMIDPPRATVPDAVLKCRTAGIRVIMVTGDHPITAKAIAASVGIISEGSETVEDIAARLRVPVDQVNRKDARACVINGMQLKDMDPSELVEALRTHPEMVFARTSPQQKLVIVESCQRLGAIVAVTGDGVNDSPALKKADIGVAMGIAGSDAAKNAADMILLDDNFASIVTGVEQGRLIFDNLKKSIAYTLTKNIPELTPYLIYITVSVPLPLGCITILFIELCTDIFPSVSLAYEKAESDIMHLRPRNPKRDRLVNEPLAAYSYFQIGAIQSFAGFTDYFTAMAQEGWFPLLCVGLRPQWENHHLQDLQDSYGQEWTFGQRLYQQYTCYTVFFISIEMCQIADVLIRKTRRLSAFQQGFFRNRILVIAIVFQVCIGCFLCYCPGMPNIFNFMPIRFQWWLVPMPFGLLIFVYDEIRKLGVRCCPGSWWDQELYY
T1 sequence (P18434 whole entry partner): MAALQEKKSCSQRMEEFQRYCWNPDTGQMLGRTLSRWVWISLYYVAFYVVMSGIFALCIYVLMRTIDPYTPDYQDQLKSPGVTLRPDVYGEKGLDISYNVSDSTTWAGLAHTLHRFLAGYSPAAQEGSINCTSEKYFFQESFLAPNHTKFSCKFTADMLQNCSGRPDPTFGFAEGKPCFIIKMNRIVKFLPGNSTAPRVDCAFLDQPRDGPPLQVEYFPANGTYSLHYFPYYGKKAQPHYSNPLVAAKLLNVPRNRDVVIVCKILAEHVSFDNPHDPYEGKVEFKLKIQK

| SMILES | IC50 (H^+ /K^+ -ATPase) | inhibition in vivo at 30 mg/kg (gastric acid secretion [1]) | ED50 (gastric acid secretion [2]) | inhibition in vivo at 30 mg/kg [3] | Approximate lethal dose [4] |
| --- | --- | --- | --- | --- | --- |
| Cc1ccccc1-c1nc2c3ccccc3ccn2c1N [Compound 3, 3-Amino-2-(2-methylphenyl)imidazo[2,1-a]isoquinoline] | 26 µM | 82.2% | 3.4 mg/kg | 73.5% | > 2,000 mg/kg |
| Cc1ccccc1-c1nc2c3cc(Cl)ccc3ccn2c1N [Compound 6, 3-Amino-9-chloro-2-(2-methylphenyl)imidazo[2,1-a]isoquinoline] | 12 µM | 79.6% | 5 mg/kg | – | > 2,000 mg/kg |
| Cc1ccccc1-c1nc2c3ccccc3cc(C)n2c1N [Compound 9, 3-Amino-5-methyl-2-(2-methylphenyl)imidazo[2,1-a]isoquinoline] | 34 µM | 90.7% | 3.1 mg/kg | – | > 2,000 mg/kg |
| COc1ccc2ccn3c(N)c(-c4ccccc4C)nc3c2c1 [Compound 26, 3-Amino-9-methoxy-2-(2-methylphenyl)imidazo[2,1-a]isoquinoline] | 32 µM | 90.8% | 2.8 mg/kg | – | > 2,000 mg/kg |
| CCNc1c(-c2ccccc2C)nc2c3ccccc3ccn12 [Compound 158, 3-Ethylamino-2-(2-methylphenyl)imidazo[2,1-a]isoquinoline] | 13 µM | 83.6% | 8.6 mg/kg | 92.4% | > 2,000 mg/kg |
| CCNc1c(-c2ccccc2C)nc2c3ccccc3c(OC)cn12 [Compound 166, 3-Ethylamino-6-methoxy-2-(2-methylphenyl)imidazo[2,1-a]isoquinoline] | 23 µM | 54.9% | – | 49.7% | > 2,000 mg/kg |
| CCNc1c(-c2sccc2C)nc2c3ccccc3c(OC)cn12 [Compound 176, 3-Ethylamino-6-methoxy-2-(3-methyl-2-thienyl)imidazo[2,1-a]isoquinoline] | 9 µM | 49.9% | – | – | > 2,000 mg/kg |
| CCNc1c(-c2csc(Cl)c2C)nc2c3ccccc3ccn12 [Compound 179, 2-(2-Chloro-3-methyl-4-thienyl)-3-ethylaminoimidazo[2,1-a]isoquinoline] | 4.8 µM | 52.8% | – | – | > 2,000 mg/kg |
| CCCNc1c(-c2ccccc2C)nc2c3ccccc3c(OC)cn12 [Compound 182, 6-Methoxy-2-(2-methylphenyl)-3-propylaminoimidazo[2,1-a]isoquinoline] | 11 µM | 58.4% | – | – | > 2,000 mg/kg |
| Cc1ccccc1-c1nc2c3ccccc3ccn2c1NCCC(C)C [Compound 188, 3-Isopentylamino-2-(2-methylphenyl)imidazo[2,1-a]isoquinoline] | 10.5 µM | 79.1% | – | – | > 2,000 mg/kg |
| CCN(CCOC)c1c(-c2ccccc2C)nc2c3ccccc3ccn12 [Compound 205, 3-[N-Ethyl-N-(2-methoxyethyl)amino]-2-(2-methylphenyl)imidazo[2,1-a]isoquinoline] | – | 86% | – | 98.6% | > 2,000 mg/kg |
| CCN(CCCSC)c1c(-c2ccccc2C)nc2c3ccccc3ccn12 [Compound 214, 3-[N-Ethyl-N-(3-methylthiopropyl)amino]-^2-(2-methylphenyl)imidazo[2,1-a]isoquinoline] | 7 µM | 56% | – | – | – |
| CCc1ccccc1-c1nc2c3ccccc3ccn2c1N(CC)CCC(C)C [Compound 216, 3-(N-Ethyl-N-isopentylamino)-2-(2-ethylphenyl)imidazo[2,1-a]isoquinoline] | 2.5 µM | – | – | 81.7% | > 2,000 mg/kg |
| C=CCNc1c(-c2ccccc2C)nc2c3ccccc3ccn12 [Compound 221, 3-allylamino-2-(2-methylphenyl)imidazo[2,1-a]isoquinoline] | – | 66.7% | – | 73.7% | > 2,000 mg/kg |
| C=CCN(CC)c1c(-c2ccccc2C)nc2c3ccccc3ccn12 [Compound 222, 3-(N-Allyl-N-ethylamino)-2-(2-methylphenyl)imidazo[2,1-a]isoquinoline] | 2 µM | 72.6% | – | 98.8% | > 2,000 mg/kg |
| C=CCN(CC=C)c1c(-c2ccccc2C)nc2c3ccccc3ccn12 [Compound 223, 3-diallylamino-2-(2-methylphenyl)imidazo[2,1-a]isoquinoline] | 4.5 µM | 60.1% | – | – | – |
| Cc1ccccc1-c1nc2c3ccsc3cc(C)n2c1N [Compound 236, 3-Amino-5-methyl-2-(2-methylphenyl)imidazo[1,2-a]thieno[3,2-c]pyridine] | 4.7 µM | – | 1.4 mg/kg | 91.5% | > 2,000 mg/kg |
| Cc1sccc1-c1nc2c3ccsc3ccn2c1N [Compound 254, 3-Amino-2-(2-methyl-3-thienyl)imidazo[1,2-a]thieno[3,2-c]pyridine] | 4.5 µM | – | 1.1 mg/kg | 92.4% | – |
| Cc1cc(-c2nc3c4ccsc4ccn3c2N)c(C)o1 [Compound 271, 3-Amino-2-(2,5-dimethyl-3-furyl)imidazo[1,2-a]thieno[3,2-c]pyridine] | 5.2 µM | – | 2.4 mg/kg | 99.5% | – |
